In ChEMBL document CHEMBL5729568, “Ras inhibitors” (2023):

What was measured:
[1] = (§1) Biochemical Assay: A variety of Ras proteins may be inhibited by compounds of the present invention (e.g., K-Ras, N-Ras, H-Ras, and mutants thereof at positions 12, 13 and 61, such as G12C, G12D, G12V, G12S, G13C, G13D, and Q61L, and others described herein). The purpose of this biochemical assay is to measure the ability of test compounds to covalently label nucleotide-loaded K-Ras isoforms. […] The sample is incubated at 25? C. for a time period of up to 24 hours prior to quenching by the addition of 10 uL of 5% Formic Acid. Quenched samples are centrifuged at 15000 rpm for 15 minutes in a benchtop centrifuge before injecting a 10 uL aliquot onto a reverse phase C4 column and eluting into the mass spectrometer with an increasing acetonitrile gradient in the mobile phase. Analysis of raw data may be carried out using Waters MassLynx MS software, with % bound calculated from the deconvoluted protein peaks for labeled and unlabeled K-Ras.
GTPase NRas = GTPase NRas (Homo sapiens, UniProt P01111); assay: as §1
GTPase KRas [2] = biological target: T1, GTPase KRas (Homo sapiens, UniProt P01116); assay: (§2) The purpose of this biochemical assay is to measure the ability of test compounds to covalently label nucleotide-loaded K-Ras isoforms. […] Analysis of raw data may be carried out using Waters MassLynx MS software, with % bound calculated from the deconvoluted protein peaks for labeled and unlabeled K-Ras.
[3] = as §1; remark: listed apart in the source
[4] = as §1; remark: listed apart in the source
GTPase KRas [5] = biological target: T1, GTPase KRas; assay: as §2; remark: listed apart in the source
[6] = as §1; remark: listed apart in the source
[7] = as §1; remark: listed apart in the source
[8] = as §1; remark: listed apart in the source
[9] = as §1; remark: listed apart in the source

GTPase NRas, sequence (P01111 whole entry, looked up, canonical isoform): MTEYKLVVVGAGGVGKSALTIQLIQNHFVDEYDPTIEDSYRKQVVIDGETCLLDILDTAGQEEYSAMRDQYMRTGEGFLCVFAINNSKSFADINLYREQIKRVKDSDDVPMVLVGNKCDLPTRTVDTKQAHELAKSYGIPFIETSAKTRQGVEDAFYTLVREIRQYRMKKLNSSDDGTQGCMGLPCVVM

Row | SMILES | IC50 [1] | IC50 (GTPase NRas) | IC50 (GTPase KRas [2]) | IC50 [3] | IC50 [4] | IC50 (GTPase KRas [5]) | IC50 [6] | IC50 [7] | IC50 [8] | IC50 [9]
1 | CCn1c(-c2cccnc2C(C)OC)c2c3cc(ccc31)-c1cccc(c1)C[C@H](NC(=O)[C@H](C(C)C)N(C)C(=O)N1CCC13CN(C(=O)C#CC(C)(C)N(C)C)C3)C(=O)N1CCC[C@H](N1)C(=O)OCC(C)(C)C2 (stereo partly specified) | in the range around 550 nM | in the range around 550 nM | in the range around 5500 nM | in the range around 550 nM | in the range around 550 nM | in the range around 550 nM | in the range around 550 nM | in the range around 55 nM | in the range around 55 nM | in the range around 550 nM
2 | C=CC(=O)N1CC[C@H](C(=O)N(C)[C@H](C(=O)N[C@H]2Cc3cc(O)cc(c3)-c3ccc4c(c3)c(c(-c3nccnc3COC)n4CC)CC(C)(C)COC(=O)[C@@H]3CCCN(N3)C2=O)C(C)C)C1 | – | – | in the range around 5500 nM | – | – | – | – | in the range around 5500 nM | – | –
3 | C=CC(=O)N1CC[C@H](C(=O)N(C)[C@H](C(=O)N[C@H]2Cc3cc(O)cc(c3)-c3ccc4c(c3)c(c(-c3cnccc3COC)n4CC)CC(C)(C)COC(=O)[C@@H]3CCCN(N3)C2=O)C(C)C)C1 | – | – | in the range around 55 nM | in the range around 550 nM | – | – | – | – | – | –
4 | C=CC(=O)N1CCN(C(=O)N(C)[C@H](C(=O)N[C@H]2Cc3cc(O)cc(c3)-c3ccc4c(c3)c(c(-c3ccccc3CN(C)C)n4CC)CC(C)(C)COC(=O)[C@@H]3CCCN(N3)C2=O)C(C)C)CC1 | in the range around 550 nM | – | – | in the range around 550 nM | in the range around 550 nM | in the range around 550 nM | – | – | – | –
5 | CCn1c(-c2cccnc2COC)c2c3cc(ccc31)-c1cc(O)cc(c1)C[C@H](NC(=O)[C@H](C(C)C)N(C)C(=O)[C@H]1CCN(C(=O)C#CCN(C)C)C1)C(=O)N1CCC[C@H](N1)C(=O)OCC(C)(C)C2 | – | – | – | – | – | in the range around 550 nM | – | – | – | –
6 | CCn1c(-c2ccccc2CCOC)c2c3cc(ccc31)-c1cc(O)cc(c1)C[C@H](NC(=O)[C@H](C(C)C)N(C)C(=O)[C@H]1CCN(C(=O)C#CCN(C)C)C1)C(=O)N1CCC[C@H](N1)C(=O)OCC(C)(C)C2 | in the range around 5500 nM | – | in the range around 55 nM | in the range around 550 nM | in the range around 5500 nM | in the range around 5500 nM | – | – | – | –
7 | C=CC(=O)N1CC[C@H](C(=O)N(C)[C@H](C(=O)N[C@H]2Cc3cc(O)cc(c3)-c3ccc4c(c3)c(c(-c3ncccc3COC)n4CC)CC(C)(C)COC(=O)[C@@H]3CCCN(N3)C2=O)C(C)C)C1 | – | – | in the range around 5500 nM | – | – | – | – | in the range around 5500 nM | – | –
